The values below come from US20030060397A1, “Method of treating and preventing acute neural lesions with substances that modulate the expression or function of a protein involved in the cell cycle and pharmaceutical preparations containing such substances” (priority 2000, published 2003).

One experiment deals with hippocampus cells. As to the kind of experiment: Kainate-dependent neuronal death in primary hippocampus cell cultures (propidium iodine). It counts as cell-based, Wistar rats. The note with it: kainate 20 μM. Here is the method:
Neuronal death was analyzed by phase contrast microscopy and the use of two death markers: propidium iodine and Hoechst dye (Bisbenzimide).
Counting was performed on hippocampus cultures exposed to 20 μM of kainate. At least two dishes per condition were evaluated.

For the next experiment, the system named is cyclin D1. Kind of experiment: Western blot of cyclin D1 expression after exposure to kainate, normalized by class III β-tubulin. The conditions noted are these: kainate 75 μM, 100% before kainate. Type of experiment: cell-based, Wistar rats. The method, then:
After exposure of the hippocampus cells to kainate, the cells were washed in PBS then lysed in a Laemli buffer. The samples were subjected to sonication and heated at 100° C. for 5 minutes. Electrophoresis with a 12% SDS-polyacrylamide gel was then performed. The proteins were then transferred onto a nitrocellulose membrane and incubated with an anti-cyclin D1 monoclonal antibody or with an anti-CDK5 polyclonal antibody (Santa Cruz, Calif., USA) or with a class III anti-β-tubulin monoclonal antibody (Sigma, St. Louis, USA), a specific neuronal marker. Labeling was performed using the anti-rabbit antibody or anti-mouse antibody coupled to horseradish peroxidase using the ECLTM kit (Amersham Corp., England). The control experiments were performed by omitting the first antibodies.
For orientation: A western blot detects proteins with antibodies after separation by electrophoresis.

Experiment [1] concerns excitotoxic neuronal death induced by kainate. The conditions noted are these: inhibitors of caspases; cited from earlier work.
The mark [2] stands for this setting: 5 hours, in the absence of inhibitor.

As to `C=C(C)[C@H]1CN[C@H](C(=O)O)[C@H]1CC(=O)O` [kainate], in the experiment on hippocampus cells (setting [2]), the “augmentation of neuronal death in relation to the cultures without kainate” value is reported as 150% and the neuronal death is on record as about 65%. For the same molecule, the “time of mortality peak” value with hippocampus cells (propidium iodine) worked out at 5 h. For the same molecule, the “normalized level of expression of cyclin D1 (percentage of the control)” value in the experiment with cyclin D1 is “more than 150%”.
For DEVD-CHO, in experiment [1], the “prevention of excitotoxic neuronal death induced by kainate” value is given as “can not be prevented”.
For the molecule YVAD-CHO, the “prevention of excitotoxic neuronal death induced by kainate” value in experiment [1] is on record as “can not be prevented”.
